Assay results published in US8691818B2, “Cyclic triazo and diazo sodium channel blockers” (University Of Greenwich, priority 2008, dated 2014).
Counter-ions that a name gives are not always drawn.

What was measured:
sodium channel = assay: [14C]guanidine flux: veratrine-evoked uptake of [14C]guanidine into rat forebrain synaptosomes (primary sodium channel assay); format: biochemical; settings: 30° for 2½ min
Experimental: The screening strategy is designed to select compounds with appropriate sodium channel blocking activity and low side effect liability. To this end all compounds are processed through the primary sodium channel assay (veratrine-evoked uptake of [^14C]guanidine into rat forebrain synaptosomes) and IC50 values computed from generated concentration-effect curves.
Experiments were performed using forebrain (whole brain less cerebellum/medulla) from Male Wistar rats weighing 175-250 g. All efforts were made to reduce the number of animals used and all experiments were carried out in accordance with the UK Animals (Scientific Procedures) Act, 1986 and the European Community Council Directive of 24 Nov. 1986 (86/609/EEC). Following killing of animals by stunning and decapitation, the forebrain (whole brain less cerebellum/medulla) was rapidly dissected and transferred to a weighed tube containing ice-cold 0.25M sucrose.
Synaptosomes (heavy and light mitochondrial fraction containing synaptosomes) were prepared by transferring the forebrain (of known wet weight) to a glass Potter vessel to which 9 volumes ice-cold 0.25M sucrose had been added and homogenising, using a teflon pestle, by 8 ‘up and down strokes’ of a Braun Potter S motor driven homogeniser set to 900 rpm. The resulting homogenate was centrifuged at 1036×g at 4° for 10 min and the supernatant collected. The remaining pellet was resuspended, as above, in fresh ice-cold 0.25M sucrose and the centrifugation step repeated. The supernatant fractions were pooled and centrifuged at 40,000×g (average) at 4° for 15 min and the resulting pellet resuspended in the appropriate assay buffer at a concentration of 20-25 mg wet weight per ml appropriate assay buffer.
Both assays were carried out using 14 ml polypropylene test tubes to which a range of concentrations of the compounds under test were added.
The [^14C] guanidinine flux assay was measured using the method of Pauwels P J et al (1986) but carried out@30° for 2½ min.
(§1) Data are presented as mean±sem of number of experiments indicated in brackets.

[1] = biological target: T1, DiHydroFolate Reductase (DHFR) (Rattus norvegicus, UniProt Q920D2); assay: Inhibition of binding of [3H]methotrexate to rat liver homogenate supernatant; settings: for inhibition at 125 µM: read-out: [3H]mtx binding (% inhibition @ 125 μM); for inhibition at 99 µM: read-out: [3H]mtx binding % inhibition (* 99 μM, *** uses fresh batch of supernatant), 99 μM, fresh batch of supernatant
T1 construct: from tissue; host or cells: rat liver homogenate supernatant
T1 sequence (Q920D2 1-187): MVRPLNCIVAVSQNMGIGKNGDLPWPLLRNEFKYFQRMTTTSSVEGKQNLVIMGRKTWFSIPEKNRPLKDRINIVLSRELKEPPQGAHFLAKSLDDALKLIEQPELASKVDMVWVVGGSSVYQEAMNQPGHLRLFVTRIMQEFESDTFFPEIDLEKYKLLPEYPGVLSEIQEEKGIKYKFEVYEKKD
Experimental: All steps were carried out at 4° (or on ice). Freshly dissected rat liver was dissected into 0.25M ice-cold Sucrose and subsequently homogenised (U-turrax) in 50 mM pH 6.0 phosphate buffer (10 ml/g tissue) containing 15 mM Dithiothreitol. The resulting homogenate was centrifuged@47,500×g for 20 min and supernatant (filtered through cotton wool to remove fatty lumps) stored @ −80° before use (Rothenberg et al).
Inhibition of the binding of [^3H]methotrexate to rat liver homogenate supernatant fractions were carried out essentially as described by Arons et al, 1975.
as §1

melting point [°C]	Compound	further results
201 to 202	Cn1nc(-c2cccs2)c(N)nc1=N (as salt: methanesulfonate) [CEN-61, 5(3)-Amino-6-(2-thienyl)-2,3(2,5)-dihydro-3(5)-imino-2-methyl-1,2,4-triazine methanesulfonate]	
194 to 196	CCn1nc(-c2cccs2)c(N)nc1=N (as salt: methanesulfonate) [CEN-62, 5(3)-Amino-6-(2-thienyl)-2,3(2,5)-dihydro-3(5)-imino-2-ethyl-1,2,4-triazine methanesulfonate]	
175 to 177	CCn1nc(-c2ccc3ccccc3c2)c(N)nc1=N (as salt: methanesulfonate) [CEN-75, 5(3)-Amino-6-(2-naphthyl)-2,3(2,5)-dihydro-3(5)-imino-2-ethyl-1,2,4-triazine methanesulfonate]	
243 to 244	Cn1nc(-c2ccc3ccccc3c2)c(N)nc1=N (as salt: methanesulfonate) [CEN-76, 5(3)-Amino-6-(2-naphthyl)-2,3(2,5)-dihydro-3(5)-imino-2-methyl-1,2,4-triazine methanesulfonate]	
179 to 181	Cn1nc(-c2cc(C(F)(F)F)cc(C(F)(F)F)c2)c(N)nc1=N (as salt: methanesulfonate) [CEN-99, 5(3)-Amino-6-[3,5-(bis-trifluoromethyl)phenyl]-2,3(2,5)-dihydro-3(5)-imino-2-methyl-1,2,4-triazine methanesulfonate]	
258 to 259	COc1cc(-c2nn(C)c(=N)nc2N)cc(OC)c1OC (as salt: methanesulfonate) [CEN-101, 5(3)-Amino-6-(3,4,5-trimethoxyphenyl)-2,3(2,5)-dihydro-3(5)-imino-2-methyl-1,2,4-triazine methanesulfonate]	
174 to 176	Cn1nc(-c2ccc(Oc3ccccc3)cc2)c(N)nc1=N (as salt: methanesulfonate) [CEN-102, 5(3)-Amino-6-(4-phenoxyphenyl)-2,3(2,5)-dihydro-3(5)-imino-2-methyl-1,2,4-triazine methanesulfonate]	
305 to 306	CCn1nc(-c2cc(OC)c(OC)c(OC)c2)c(N)nc1=N (as salt: methanesulfonate) [CEN-119, 5(3)-Amino-6-(3,4,5-trimethoxyphenyl)-2,3(2,5)-dihydro-3(5)-imino-2-ethyl-1,2,4-triazine methanesulfonate]	
236 to 237	Cn1nc(-c2cccc3c2CCCC3)c(N)nc1=N (as salt: methanesulfonate) [CEN-120, 5(3)-Amino-6-[1-(5,6,7,8-tetrahydronaphthyl)]-2,3(2,5)-dihydro-3(5)-imino-2-methyl-1,2,4-triazine methanesulfonate]	
183 to 185	Cn1nc(-c2cc(Br)c(Br)o2)c(N)nc1=N (as salt: methanesulfonate) [CEN-135, 5(3)-Amino-6-[2-(4,5-dibromofuryl)]-2,3(2,5)-dihydro-3(5)-imino-2-methyl-1,2,4-triazine methanesulfonate]	
213 to 215	Cn1nc(-c2ccccc2OC(F)F)c(N)nc1=N (as salt: methanesulfonate) [CEN-146, 5(3)-Amino-6-(2-difluoromethoxyphenyl)-2,3(2,5)-dihydro-3(5)-imino-2-methyl-1,2,4-triazine methanesulfonate]	
240 to 242	Cn1nc(C(C)(c2ccccc2)c2ccccc2)c(N)nc1=N (as salt: methanesulfonate) [CEN-149, 5(3)-Amino-6-(1,1-diphenylethyl)-2,3(2,5)-dihydro-3(5)-imino-2-methyl-1,2,4-triazine methanesulfonate]	
272 to 273	Cn1nc(C2(c3ccc(Cl)cc3)CCCC2)c(N)nc1=N (as salt: methanesulfonate) [CEN-150, 5(3)-Amino-6-{1-[1-(4-chlorophenyl)]cyclopentyl}-2,3(2,5)-dihydro-3(5)-imino-2-methyl-1,2,4-triazine methanesulfonate]	
180 to 181	Cn1nc(-c2cccc(-c3ccccc3)c2)c(N)nc1=N (as salt: methanesulfonate) [CEN-161, 5(3)-Amino-6-(3-biphenyl)-2,3(2,5)-dihydro-3(5)-imino-2-methyl-1,2,4-triazine methanesulfonate]	
224 to 226	CCn1nc(-c2cccc(-c3ccccc3)c2)c(N)nc1=N (as salt: methanesulfonate) [CEN-162, 5(3)-Amino-6-(3-biphenyl)-2,3(2,5)-dihydro-3(5)-imino-2-ethyl-1,2,4-triazine methanesulfonate]	
192 to 194	Cn1nc(-c2sc(Cl)c(Cl)c2Cl)c(N)nc1=N (as salt: methanesulfonate) [CEN-194, 5(3)-Amino-6-{2-(3,4,5-trichloro)thienyl}-2,3(2,5)-dihydro-3(5)-imino-2-methyl-1,2,4-triazine methanesulfonate]	
	Nc1nnc(-c2cccc(-c3nnc(N)nc3N)c2)c(N)n1 [CEN-186]	IC50 (sodium channel): > 2000 µM; inhibition at 125 µM [1]: 83%
	Nc1nnc(-c2nc(Cl)ccc2Cl)c(N)n1 [CEN-188, 3,5-Diamino-6-[2-(3,6-dichloropyidyl)]-1,2,4-triazine]	IC50 (sodium channel): 2570 µM; inhibition at 125 µM [1]: 76%
	Nc1nnc(-c2cc(F)c(Cl)nc2Cl)c(N)n1 [CEN-190, 3,5-Diamino-6-[3-(2,6-dichloro-5-fluoropyidyl)]-1,2,4-triazine]	IC50 (sodium channel): 813 µM; inhibition at 125 µM [1]: 6%
	Nc1nnc(-c2ccc(Cl)nc2)c(N)n1 [CEN-191, 3,5-Diamino-6-[3-(6-chloro-pyridyl)]-1,2,4-triazine]	IC50 (sodium channel): 1950 µM; inhibition at 125 µM [1]: 31%
	Cn1nc(-c2sc(Cl)c(Cl)c2Cl)c(N)nc1=N [CEN-194, 5(3)-Amino-6-{2-(3,4,5-trichloro)thienyl}-2,3(2,5)-dihydro-3(5)-imino-2-methyl-1,2,4-triazine methanesulfonate]	IC50 (sodium channel): 9 µM; inhibition at 99 µM [1]: -6%
	CCn1nc(-c2sc(Cl)c(Cl)c2Cl)c(N)nc1=N [CEN-195, 5(3)-Amino-6-{2-(3,4,5-trichloro)thienyl}-2,3(2,5)-dihydro-3(5)-imino-2-ethyl-1,2,4-triazine methanesulfonate]	IC50 (sodium channel): 4 µM; inhibition at 99 µM [1]: -2%
	Nc1nnc(-c2ccco2)c(-c2ccco2)n1 [CEN-196, 3-Amino-5,6-bis(2-furyl)-1,2,4-triazine]	IC50 (sodium channel): 912 µM; inhibition at 99 µM [1]: 41%

Compound	melting point [°C]	further results
Cn1nc(-c2cc(C(F)(F)F)cc(Cl)c2F)c(N)nc1=N (as salt: mesylate) [CEN-202, 5(3)-Amino-6-(3-chloro-2-fluoro-5-trifluoromethyphenyl)-2,3(2,5)-dihydro-3(5)-imino-2-methyl-1,2,4-triazine mesylate]	277 to 279	
CCn1nc(-c2cc(C(F)(F)F)cc(Cl)c2F)c(N)nc1=N (as salt: mesylate) [CEN-203, 5(3)-Amino-6-(3-chloro-2-fluoro-5-trifluoromethyphenyl)-2,3(2,5)-dihydro-3(5)-imino-2-ethyl-1,2,4-triazine mesylate]	277 to 279	
Cn1nc(-c2cc(F)c(F)cc2Cl)c(N)nc1=N (as salt: mesylate) [CEN-204, 5(3)-Amino-6-(2-chloro-4,5-difluoro-5-phenyl)-2,3(2,5)-dihydro-3(5)-imino-2-methyl-1,2,4-triazine mesylate]	319 to 321	
